Assay results published in US8895733B2 (Novartis AG, priority 2010, dated 2014).

What was measured:
Nav 1.7 [1] = target: T1, Nav 1.7 (Homo sapiens, UniProt Q15858); assay: Whole-cell voltage clamp electrophysiology, manual patch clamp (marker b in Table of Examples); type: cell-based; details: marker b: Manual patch clamp data; read-out: Nav 1.7 activity
T1 construct: expressed in transfected cells
Excerpt: (§1) a.IonWork Quattro data, b=Manual patch clamp data, c=Automated patch clamp data M=Method
(§2) Whole-Cell Voltage Clamp Electrophysiology Assay
(§3) Patch-clamp electrophysiology is considered the gold standard technique for investigation of ion channel function and pharmacology. Using this method, sodium channel currents can be measured in cells, which stably (or transiently) express the sodium channel subtype of interest. Application of compounds during such experiments provides a functional measure of the activity and potency of compounds affecting the ion channel of interest.
(§4) Electrophysiological studies can also be performed using the whole cell configuration of the standard manual patch clamp technique as described in the literature (e.g. Pflugers Arch., 1981, 391(2), 85-100). In this assay, cells that express the voltage-gated sodium channel protein of interest are exposed to the drugs by conventional microperfusion systems, or by a home-built perfusion system. A suitable voltage stimulus protocol is used to activate the voltage-gated sodium channels.
(§5) A suitable voltage stimulus protocol is used to activate voltage-gated sodium channel proteins of interest. A typical stimulus protocol may consist of sweeps of sequential voltage pulses starting from a holding potential (i.e. −65 mV), to a more positive and depolarising test pulse potential (i.e. −10 mV) and finally to a more negative and hyperpolarising potential (i.e. −100 mV). According to the biophysics of the voltage-gated ion channel of interest and interest in channel configuration the voltages and durations of the pulses as well as the overall frequency of sweeps applied might vary. Accordingly, a stimulus protocol was designed to assess compounds due to their potential to block NaV1.7 channels primarily in inactivated state. Selectivity over other voltage-gated sodium channel members was assessed by protocols that reflect the native function of the channels (i.e. heart rate or firing of neurons).
(§6) Electrophysiological studies can also be performed using the whole cell configuration of the standard manual patch clamp technique as described in the literature (e.g. Pflugers Arch., 1981, 391(2), 85-100). In this assay, cells that express the human voltage-gated sodium channel protein of interest are exposed to the drugs by conventional microperfusion systems, or by a home-built perfusion system. A suitable voltage stimulus protocol is used to activate the voltage-gated sodium channels. A suitable voltage stimulus protocol may consist of sequential voltage pulses from a holding potential, each first hyperpolarizing the cell, then depolarizing the channels for a brief period. A particularly suitable holding potential may be a voltage allowing a fraction of channels to remain in an inactivated state, like −60 mV. A suitable hyperpolarizing voltage and duration may be −120 mV for 100 ms, and depolarization voltage and duration may be −20 mV for 25 ms, and a suitable frequency of pulses may be 0.1 Hz, but may also have other parameters. Accordingly, a stimulus protocol was designed to assess compounds due to their potential to block NaV1.7 channels primarily in inactivated state. Selectivity over other voltage-gated sodium channel members was assessed by protocols that reflect the native function of the channels (i.e. heart rate or firing of neurons).

Nav1.5 [2] = target: T2, Nav1.5 (Homo sapiens, UniProt Q14524); assay: Inhibition of Nav1.5 as measured using manual patch clamp; type: cell-based
T2 construct: expressed in transfected cells
Excerpt: as §3, §4, §5, §6
Inhibition of Nav1.5 by Compounds of formula (I) as measured using manual patch clamp

Nav 1.7 [3] = target: T1, Nav 1.7; assay: Whole-cell voltage clamp electrophysiology, IonWorks Quattro (marker a in Table of Examples); type: cell-based; details: marker a: IonWork Quattro data; read-out: Nav 1.7 activity
Excerpt: as §1, §2, §3
(§7) Electrophysiological studies can be performed using automated or manual patch-clamp techniques. Automated patch-clamp instruments suitable for this work include the Ion Works HT (MDS), Ion Works Quattro (MDS), PatchLiner (Nanion technologies), Port-A-Patch (Nanion technologies), QPatch (Sophion) or any other suitable platform.
(§8) For recording in automated patch-clamp instruments, cells expressing the voltage-gated sodium channel subtype of interest are dispensed in appropriate chips (plates with more than one recording chambers each containing one or more apertures to generate whole-cell patches), as provided by the manufacturer. Typically, the whole-cell perforated patch configuration is used for probing the pharmacology of compounds in automated patch-clamp electrophysiology on sodium channels. Extracellular and intracellular buffers for such experiments are composed according to the literature, or according to the instructions provided by the manufacturer of the instruments. Test solutions, which contain the compounds to be tested, are applied to the cells expressing the sodium channel of interest by a pipetting system, typically integrated into the robots.
as §5

Nav1.5 [4] = target: T2, Nav1.5; assay: Inhibition of Nav1.5 as measured using QPatch; type: cell-based
Excerpt: as §3, §7, §8, §5
Inhibition of Nav1.5 by Compounds of formula (I) as measured using QPatch

Nav 1.7 [5] = target: T1, Nav 1.7; assay: Whole-cell voltage clamp electrophysiology, automated patch clamp (marker c in Table of Examples); type: cell-based; details: marker c: Automated patch clamp data; read-out: Nav 1.7 activity
Summary of the method: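 A voltage protocol weighted toward inactivated-state block was used to test compounds on stably expressing cells, with pulses from −65 mV holding to −10 mV test and −100 mV. Currents came from whole-cell automated patch-clamp recordings, either IonWorks Quattro or other automated instruments, usually in perforated-patch mode.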

[6] = tested on: inflammatory pain induced by intraplantar injection of Complete Freund's Adjuvant; assay: FCA (Freund's Complete Adjuvant) test, model of inflammatory pain; type: in vivo; details: rat, tested 72 h post FCA injection
Experimental: Compounds of formula (I) may show analgesic activity in the FCA (Freund's Complete Adjuvant) test in the rat, a model of inflammatory pain which is induced by intraplantar injection of Complete Freund's Adjuvant (Stein et al. Pharmac. Biochem. Behav., 1988, 31, 445-451). […] Thus, the local anesthetic effect may not mask the analgesic properties of the compounds (Scott et al., British Journal of Anaesthesia, 1988, 61, 165-8). […] All compounds were tested 72 h post FCA injection.

T2 sequence (Q14524 whole entry): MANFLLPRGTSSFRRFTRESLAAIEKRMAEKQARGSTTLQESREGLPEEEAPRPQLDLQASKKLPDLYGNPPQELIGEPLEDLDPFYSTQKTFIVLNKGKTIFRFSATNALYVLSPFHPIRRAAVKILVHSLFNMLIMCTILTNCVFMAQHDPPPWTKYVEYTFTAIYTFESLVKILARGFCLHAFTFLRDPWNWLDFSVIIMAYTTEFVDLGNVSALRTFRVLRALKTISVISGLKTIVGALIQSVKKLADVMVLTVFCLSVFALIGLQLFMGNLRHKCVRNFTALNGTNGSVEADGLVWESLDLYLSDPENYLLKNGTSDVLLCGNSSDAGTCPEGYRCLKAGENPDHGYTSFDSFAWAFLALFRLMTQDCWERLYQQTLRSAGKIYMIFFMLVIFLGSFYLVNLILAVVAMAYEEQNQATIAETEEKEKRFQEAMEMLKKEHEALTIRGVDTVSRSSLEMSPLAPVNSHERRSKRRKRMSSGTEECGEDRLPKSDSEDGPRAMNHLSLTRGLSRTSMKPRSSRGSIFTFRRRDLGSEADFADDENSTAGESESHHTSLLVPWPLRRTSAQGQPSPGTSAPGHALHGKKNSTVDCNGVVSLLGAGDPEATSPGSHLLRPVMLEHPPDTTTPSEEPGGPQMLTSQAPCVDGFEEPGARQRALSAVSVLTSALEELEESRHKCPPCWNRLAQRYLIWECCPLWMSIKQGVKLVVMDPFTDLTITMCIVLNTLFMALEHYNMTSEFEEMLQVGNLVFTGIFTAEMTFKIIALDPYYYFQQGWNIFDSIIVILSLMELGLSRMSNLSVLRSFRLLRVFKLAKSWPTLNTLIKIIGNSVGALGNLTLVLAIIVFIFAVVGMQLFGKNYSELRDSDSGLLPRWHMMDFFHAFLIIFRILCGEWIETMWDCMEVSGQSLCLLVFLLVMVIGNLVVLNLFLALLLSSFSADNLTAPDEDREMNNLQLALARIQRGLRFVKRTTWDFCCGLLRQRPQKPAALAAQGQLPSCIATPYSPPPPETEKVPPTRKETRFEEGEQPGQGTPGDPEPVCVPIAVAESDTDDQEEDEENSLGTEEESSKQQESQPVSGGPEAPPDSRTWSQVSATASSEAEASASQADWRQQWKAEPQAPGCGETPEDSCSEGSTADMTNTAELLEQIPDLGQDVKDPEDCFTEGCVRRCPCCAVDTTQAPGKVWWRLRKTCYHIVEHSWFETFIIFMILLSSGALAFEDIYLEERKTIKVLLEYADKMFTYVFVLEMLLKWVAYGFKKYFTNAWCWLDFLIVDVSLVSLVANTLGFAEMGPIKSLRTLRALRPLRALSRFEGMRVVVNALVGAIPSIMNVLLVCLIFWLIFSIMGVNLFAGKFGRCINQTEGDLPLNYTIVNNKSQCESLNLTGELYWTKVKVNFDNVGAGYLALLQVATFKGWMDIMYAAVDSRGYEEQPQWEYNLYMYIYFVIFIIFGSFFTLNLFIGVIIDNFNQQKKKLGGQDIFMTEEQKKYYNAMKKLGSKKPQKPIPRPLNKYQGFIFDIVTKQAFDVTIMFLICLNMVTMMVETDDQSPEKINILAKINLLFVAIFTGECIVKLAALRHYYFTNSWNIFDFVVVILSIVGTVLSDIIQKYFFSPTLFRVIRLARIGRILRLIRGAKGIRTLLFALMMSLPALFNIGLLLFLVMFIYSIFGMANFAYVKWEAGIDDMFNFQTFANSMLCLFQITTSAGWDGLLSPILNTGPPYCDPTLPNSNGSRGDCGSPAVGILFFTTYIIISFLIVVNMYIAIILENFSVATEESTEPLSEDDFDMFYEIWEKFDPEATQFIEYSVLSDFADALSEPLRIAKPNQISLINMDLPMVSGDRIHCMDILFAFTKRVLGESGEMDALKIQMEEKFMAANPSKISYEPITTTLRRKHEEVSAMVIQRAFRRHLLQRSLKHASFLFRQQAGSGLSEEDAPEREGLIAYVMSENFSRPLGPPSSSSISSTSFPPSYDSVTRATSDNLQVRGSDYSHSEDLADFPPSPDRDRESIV
T1 sequence (Q15858 whole entry): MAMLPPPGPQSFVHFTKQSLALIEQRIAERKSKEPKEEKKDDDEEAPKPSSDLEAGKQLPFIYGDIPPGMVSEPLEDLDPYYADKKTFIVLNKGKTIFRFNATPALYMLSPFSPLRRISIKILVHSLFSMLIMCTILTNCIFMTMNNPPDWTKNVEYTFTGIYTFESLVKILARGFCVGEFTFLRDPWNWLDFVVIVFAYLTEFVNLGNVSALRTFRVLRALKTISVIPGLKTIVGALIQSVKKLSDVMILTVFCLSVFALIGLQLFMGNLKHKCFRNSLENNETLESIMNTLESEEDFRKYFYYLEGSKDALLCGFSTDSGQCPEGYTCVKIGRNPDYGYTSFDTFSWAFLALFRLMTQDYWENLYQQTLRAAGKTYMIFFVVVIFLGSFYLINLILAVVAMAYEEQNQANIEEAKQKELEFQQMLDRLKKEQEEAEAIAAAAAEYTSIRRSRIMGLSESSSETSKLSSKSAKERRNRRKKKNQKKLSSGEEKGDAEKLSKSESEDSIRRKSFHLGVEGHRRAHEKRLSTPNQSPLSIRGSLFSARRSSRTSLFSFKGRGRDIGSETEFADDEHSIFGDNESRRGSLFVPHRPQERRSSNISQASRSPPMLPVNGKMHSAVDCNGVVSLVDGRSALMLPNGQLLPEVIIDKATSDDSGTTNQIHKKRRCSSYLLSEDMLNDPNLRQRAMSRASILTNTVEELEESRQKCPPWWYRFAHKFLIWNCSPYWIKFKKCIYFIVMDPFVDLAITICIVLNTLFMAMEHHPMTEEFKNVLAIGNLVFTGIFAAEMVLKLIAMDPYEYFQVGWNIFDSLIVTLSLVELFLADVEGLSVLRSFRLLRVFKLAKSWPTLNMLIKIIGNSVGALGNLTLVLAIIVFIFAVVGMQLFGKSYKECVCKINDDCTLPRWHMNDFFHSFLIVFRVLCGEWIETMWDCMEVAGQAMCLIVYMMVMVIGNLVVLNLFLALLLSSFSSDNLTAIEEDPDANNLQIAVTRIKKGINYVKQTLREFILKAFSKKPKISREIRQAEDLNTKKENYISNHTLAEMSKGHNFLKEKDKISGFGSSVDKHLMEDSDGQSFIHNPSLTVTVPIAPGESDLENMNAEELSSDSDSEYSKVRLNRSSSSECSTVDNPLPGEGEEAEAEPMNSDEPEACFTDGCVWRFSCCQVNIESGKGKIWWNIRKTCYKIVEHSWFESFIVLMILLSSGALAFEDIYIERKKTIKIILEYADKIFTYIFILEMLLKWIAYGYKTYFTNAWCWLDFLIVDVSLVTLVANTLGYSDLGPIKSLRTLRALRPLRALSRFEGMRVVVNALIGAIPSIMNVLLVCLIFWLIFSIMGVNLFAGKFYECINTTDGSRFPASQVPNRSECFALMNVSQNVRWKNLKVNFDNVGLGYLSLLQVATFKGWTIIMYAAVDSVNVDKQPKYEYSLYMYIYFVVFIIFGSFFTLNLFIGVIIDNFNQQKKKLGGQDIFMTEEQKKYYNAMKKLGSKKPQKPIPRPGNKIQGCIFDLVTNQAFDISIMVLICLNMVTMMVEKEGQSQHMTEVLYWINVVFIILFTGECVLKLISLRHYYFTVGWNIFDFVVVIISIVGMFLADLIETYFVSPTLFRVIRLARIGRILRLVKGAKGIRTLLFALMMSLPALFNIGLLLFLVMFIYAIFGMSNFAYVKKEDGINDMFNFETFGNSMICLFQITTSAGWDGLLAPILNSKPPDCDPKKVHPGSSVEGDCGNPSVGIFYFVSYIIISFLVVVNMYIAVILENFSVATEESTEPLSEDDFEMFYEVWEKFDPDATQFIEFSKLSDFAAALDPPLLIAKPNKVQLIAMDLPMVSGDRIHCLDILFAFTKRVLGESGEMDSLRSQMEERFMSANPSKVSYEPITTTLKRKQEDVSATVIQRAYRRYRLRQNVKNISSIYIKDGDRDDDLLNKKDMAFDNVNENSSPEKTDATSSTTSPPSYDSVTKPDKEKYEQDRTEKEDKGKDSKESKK

| Compound | IC50 (Nav 1.7 [1]) | IC50 (Nav 1.7 [3]) | IC50 (Nav1.5 [2]) | further results |
| --- | --- | --- | --- | --- |
| CN(c1ccccc1)c1nc(N)nc(-c2noc(-c3ccco3)n2)n1 [Example 1, 6-(5-Furan-2-yl-[1,2,4]oxadiazol-3-yl)-N-methyl-N-phenyl-[1,3,5]triazine-2,4-diamine] | 212 nM | – | 2430 nM | – |
| CN(c1cccc(Cl)c1)c1nc(N)nc(-c2noc(-c3ccco3)n2)n1 [Example 7, 6-(5-Furan-2-yl-[1,2,4]oxadiazol-3-yl)-N-methyl-N-(3-chlorophenyl)-[1,3,5]triazine-2,4-diamine] | 187 nM | – | 847 nM | – |
| CN(c1ccc(F)cc1)c1nc(N)nc(-c2noc(-c3ccco3)n2)n1 [Example 16, N-(4-Fluoro-phenyl)-6-(5-furan-2-yl-[1,2,4]oxadiazol-3-yl)-N-methyl-[1,3,5]triazine-2,4-diamine] | 264 nM | – | 1050 nM | – |
| CN(c1nc(N)nc(-c2noc(-c3ccco3)n2)n1)c1ccccc1Cl [Example 17, N-(2-Chloro-phenyl)-6-(5-furan-2-yl-[1,2,4]oxadiazol-3-yl)-N-methyl-[1,3,5]triazine-2,4-diamine] | – | < 5000 nM | – | – |
| Cc1ccccc1N(C)c1nc(N)nc(-c2noc(-c3ccco3)n2)n1 [Example 18, 6-(5-Furan-2-yl-[1,2,4]oxadiazol-3-yl)-N-methyl-N-o-tolyl-[1,3,5]triazine-2,4-diamine] | – | < 5000 nM | – | – |
| Cc1ccc(-c2nc(-c3nc(N)nc(N(C)c4ccccc4)n3)no2)o1 [Example 19, N-Methyl-6-[5-(5-methyl-furan-2-yl)-[1,2,4]oxadiazol-3-yl]-N-phenyl-[1,3,5]triazine-2,4-diamine] | – | 61 nM | – | – |
| CN(Cc1ccccc1)c1nc(N)nc(-c2noc(-c3ccco3)n2)n1 [Example 20, N-Benzyl-6-(5-furan-2-yl-[1,2,4]oxadiazol-3-yl)-N-methyl-[1,3,5]triazine-2,4-diamine] | – | < 3000 nM | – | – |
| CCN(c1ccccc1)c1nc(N)nc(-c2noc(-c3ccco3)n2)n1 [Example 21, N-Ethyl-6-(5-furan-2-yl-[1,2,4]oxadiazol-3-yl)-N-phenyl-[1,3,5]triazine-2,4-diamine] | 249 nM | – | 2060 nM | – |
| Nc1nc(-c2noc(-c3ccco3)n2)nc(N2CCc3ccccc32)n1 [Example 22, 4-(2,3-Dihydro-indol-1-yl)-6-(5-furan-2-yl-[1,2,4]oxadiazol-3-yl)-[1,3,5]triazin-2-ylamine] | – | < 1000 nM | – | – |
| COc1cccc(-c2nc(-c3nc(N)nc(N(C)c4ccccc4)n3)no2)c1 [Example 24, 6-[5-(3-Methoxy-phenyl)-[1,2,4]oxadiazol-3-yl]-N-methyl-N-phenyl-[1,3,5]triazine-2,4-diamine] | – | < 500 nM | – | – |
| Nc1nc(Nc2cccc(Cl)c2)nc(-c2noc(-c3ccco3)n2)n1 [Example 32, N-(3-Chloro-phenyl)-6-(5-furan-2-yl-[1,2,4]oxadiazol-3-yl)-[1,3,5]triazine-2,4-diamine] | – | < 500 nM | – | – |
| Nc1nc(Nc2ccccc2)nc(-c2noc(-c3ccc(OCC(F)(F)F)nc3)n2)n1 [Example 41, 2-N-Phenyl-6-{5-[6-(2,2,2-trifluoroethoxy)pyridin-3-yl]-1,2,4-oxadiazol-3-yl}-1,3,5-triazine-2,4-diamine] | – | – | – | IC50 (Nav 1.7 [5]): 673 nM; IC50 (Nav1.5 [4]): 334 nM |
| CN(c1ccccc1)c1nc(N)nc(-c2noc(-c3ncccc3Br)n2)n1 [Example 43, 6-[5-(3-Bromopyridin-2-yl)-[1,2,4]oxadiazol-3-yl]-N-methyl-N-phenyl-[1,3,5]triazine-2,4-diamine] | – | – | – | IC50 (Nav 1.7 [5]): 102 nM; IC50 (Nav1.5 [4]): 1030 nM |
| CN(c1ccccc1)c1nc(N)nc(-c2noc(C(=O)NC3CCCC3)n2)n1 [Example 72, 3-[4-Amino-6-(methyl-phenyl-amino)-[1,3,5]triazin-2-yl]-[1,2,4]oxadiazole-5-carboxylic acid cyclopentylamide] | – | – | – | IC50 (Nav 1.7 [5]): 288 nM; IC50 (Nav1.5 [4]): 5960 nM |
| COc1cccnc1-c1nc(-c2nc(N)nc(N(C)c3ccccc3)n2)no1 [Example 132, 6-[5-(3-Methoxy-2-pyridyl)-[1,2,4]oxadiazol-3-yl]-N-methyl-N-phenyl-[1,3,5]triazine-2,4-diamine] | – | – | 2600 nM | IC50 (Nav 1.7 [5]): 397 nM |

Second part, led by results:

| IC50 (Nav 1.7 [1]) | IC50 (Nav 1.7 [3]) | Compound | IC50 (Nav1.5 [2]) | further results |
| --- | --- | --- | --- | --- |
| – | < 1000 nM | CN(c1cccc(C(F)(F)F)c1)c1nc(N)nc(-c2noc(-c3ccco3)n2)n1 [Example 33] | – | – |
| – | < 500 nM | CN(c1nc(N)nc(-c2noc(-c3ccco3)n2)n1)c1cccc(F)c1F [Example 34, 6-(5-Furan-2-yl-[1,2,4]oxadiazol-3-yl)-N-methyl-N-(2,3-difluorophenyl)-[1,3,5]triazine-2,4-diamine] | – | – |
| 319 nM | – | Nc1nc(Nc2ccccc2)nc(-c2noc(-c3ccccn3)n2)n1 [Example 39, N-Phenyl-6-(pyridin-2-yl-[1,2,4]oxadiazol-3-yl)-[1,3,5]triazine-2,4-diamine] | – | IC50 (Nav1.5 [4]): 891 nM |
| 110 nM | – | CN(c1ccccc1)c1nc(N)nc(-c2noc(-c3ccc(OCC(F)(F)F)nc3)n2)n1 [Example 67, N-Methyl-N-phenyl-6-{5-[6-(2,2,2-trifluoroethoxy)-pyridin-3-yl]-[1,2,4]oxadiazol-3-yl}-[1,3,5]triazine-2,4-diamine] | – | IC50 (Nav1.5 [4]): 7060 nM; analgesic efficacy in FCA test ([6]; 3 mg/kg p.o.): efficacious |
| 814 nM | – | CN(c1ccccc1)c1nc(N)nc(-c2noc(C(=O)NCc3ccccc3)n2)n1 [Example 71, 3-[4-Amino-6-(methyl-phenyl-amino)-[1,3,5]triazin-2-yl]-[1,2,4]oxadiazole-5-carboxylic acid benzylamide] | – | IC50 (Nav1.5 [4]): 3020 nM |
| 126 nM | – | CN(c1cccc(F)c1)c1nc(N)nc(-c2noc(-c3ccccc3Cl)n2)n1 [Example 86, 6-[5-(2-Chloro-phenyl)-[1,2,4]oxadiazol-3-yl]-N-(3-fluoro-phenyl)-N-methyl-[1,3,5]triazine-2,4-diamine] | 300 nM | – |
| 46 nM | – | CCN(c1ccccc1)c1nc(N)nc(-c2noc(-c3ccccc3OC)n2)n1 [Example 95, N-Ethyl-6-[5-(2-methoxy-phenyl)-[1,2,4]oxadiazol-3-yl]-N-phenyl-[1,3,5]triazine-2,4-diamine] | 3700 nM | – |
| 42 nM | – | CN(c1nc(N)nc(-c2noc(-c3ccco3)n2)n1)c1cc(Cl)ccc1F [Example 103, N-(5-Chloro-2-fluoro-phenyl)-6-(5-furan-2-yl-[1,2,4]oxadiazol-3-yl)-N-methyl-[1,3,5]triazine-2,4-diamine] | 215 nM | – |
| 560 nM | – | CN(c1ccccc1)c1nc(N)nc(-c2noc(-c3nccs3)n2)n1 [Example 125, N-Methyl-N-pheny!-6-(5-thiazol-2-yl-[1,2,4]oxadiazol-3-yl)-[1,3,5]triazine-2,4-diamine] | 917 nM | analgesic efficacy in FCA test ([6]; 1 mg/kg p.o.): efficacious |
